Data reported in PubChem BioAssay (NCI).
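Cells were grown in 96-well plates and exposed to each compound for 48 hours at five concentrations; endpoints were interpolated linearly between bracketing concentrations, or set to the highest concentration if not reached. GI50 marks 50% less growth. TGI marks complete inhibition of growth.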

Columns and labels:
Assay in all cases: NCI tumour cell line growth inhibition, 48 h
[1] = test system: HCT-116 colon
[2] = test system: MALME-3M melanoma
[3] = test system: SNB-75 CNS
[4] = test system: UACC-62 melanoma
[5] = test system: K-562 leukemia
[6] = test system: SK-OV-3 ovarian
[7] = test system: CAKI-1 renal
[8] = test system: HS 578T breast
[9] = test system: DU-145 prostate
[10] = test system: COLO 205 colon

| Compound | GI50 [1] [µM] | TGI [1] [µM] | GI50 [2] [µM] | TGI [2] [µM] | GI50 [3] [µM] | TGI [3] [µM] | GI50 [4] [µM] | TGI [4] [µM] | TGI [5] [µM] | GI50 [6] [µM] | TGI [6] [µM] | GI50 [7] [µM] | TGI [7] [µM] | GI50 [8] [µM] | TGI [8] [µM] | GI50 [9] [µM] | TGI [9] [µM] | GI50 [10] [µM] | TGI [10] [µM] | GI50 [5] [µM] |
| --- | --- | --- | --- | --- | --- | --- | --- | --- | --- | --- | --- | --- | --- | --- | --- | --- | --- | --- | --- | --- |
| Cc1[nH]nc(C(F)(F)F)c1Cc1sc2c(c1C(=O)N1C[C@](C)(O)CO1)c(=O)n(C)c(=O)n2C(C)C | > 100 | > 100 | > 100 | > 100 | > 100 | > 100 | > 100 | > 100 | > 100 | > 100 | > 100 | > 100 | > 100 | > 100 | > 100 | > 100 | > 100 | > 100 | > 100 |  |
| CC(C)[C@@H](C(=O)O[C@@H]1/C=C/C(=O)O[C@@H](C)CCC/C=C/[C@@H]2C[C@H](O)C[C@H]21)N(C)C | 22.3 | 64.4 | 3.89 | 22 | 2.89 | 27.7 | 21.7 | > 72.1 | 50.7 | 23.8 | > 96 | 11.9 | 42.8 | 6.4 | 50.5 | 29.4 | > 100 | 8.95 | 25.5 | 20.3 |
| OC1OCC(COc2cc(Cl)c(Cl)cc2Cl)OC1O (stereo not drawn) |  | 42.1 |  | > 100 |  | > 100 |  | > 100 | > 100 |  | > 100 |  | > 100 |  |  |  |  |  | > 100 |  |
| c1ccc2c(N=NSc3ncnc4nc[nH]c34)c3ccccc3nc2c1 | 0.53 | 11.6 | 2.01 | 4.11 | 1.35 | 2.95 | 1.1 | 2.63 | 11.1 | 1.38 | 14.2 | 1.76 | 7.07 | 2.6 | 7.21 | 1.4 | 6.63 | 0.428 | 1.76 | 1.58 |
| C=CC1=C(C)C(/C=c2\[nH]/c(=C/c3[nH]c(CC4NC(=O)C(C)/C4=C\C)c(C)c3CCC(=O)O)c(CC(=O)O)c2C)=NC1=O (stereo not drawn) |  | > 100 |  | > 100 |  | > 100 |  | > 100 | > 100 |  | > 100 |  | > 100 |  |  |  |  |  | > 100 |  |
| CC1(C)CC(=O)C(CC2C(=O)CCCC2=O)C(=O)C1 |  | > 100 |  | > 100 |  | > 100 |  | > 100 | > 100 |  | > 100 |  | > 100 |  |  |  |  |  | > 100 |  |
| O=C1c2ccccc2C(=O)N1CC#CCO |  | > 100 |  |  |  |  |  | > 100 | > 100 |  | > 100 |  | > 100 |  |  |  |  |  |  |  |
| Cc1cc(-c2ccccc2)nc(Nc2cc3ccccc3[nH]2)n1 |  | > 100 |  | > 100 |  |  |  | > 100 | > 100 |  | > 100 |  | > 100 |  |  |  |  |  | > 100 |  |
| CN1C(=O)N(C)C2C1NC(=S)N2/N=C/C=C/c1ccccc1[N+](=O)[O-] (stereo not drawn) | 0.634 | > 100 | > 100 | > 100 | 0.319 | > 100 | 0.419 | > 100 |  | 1.18 | > 100 | 1.46 | > 100 | 0.646 | > 100 | 3.81 | > 100 | 1.23 | 6.77 |  |
